Experimental data taken from article PMC12316285, “The porphyran degradation system is complete, phylogenetically and geographically diverse across the gut microbiota of East Asian populations” (PLOS One, 2025).

Tests used:
BpS1_11 (Bacple_01701) = target: T1, BpS1_11 (Bacple_01701) (Phocaeicola plebeius, UniProt B5CYA4); assay: 1H NMR of products; type: biochemical; conditions: desulfation of the non-reducing-end L-galactose 6-sulfate
T1 construct: signal peptide removed; pET-28 or pFO4, HisTrap purified; formylglycine sulfatase (Ser83 is formylglycine in mature enzyme)
T1 sequence (B5CYA4 entry or part of it): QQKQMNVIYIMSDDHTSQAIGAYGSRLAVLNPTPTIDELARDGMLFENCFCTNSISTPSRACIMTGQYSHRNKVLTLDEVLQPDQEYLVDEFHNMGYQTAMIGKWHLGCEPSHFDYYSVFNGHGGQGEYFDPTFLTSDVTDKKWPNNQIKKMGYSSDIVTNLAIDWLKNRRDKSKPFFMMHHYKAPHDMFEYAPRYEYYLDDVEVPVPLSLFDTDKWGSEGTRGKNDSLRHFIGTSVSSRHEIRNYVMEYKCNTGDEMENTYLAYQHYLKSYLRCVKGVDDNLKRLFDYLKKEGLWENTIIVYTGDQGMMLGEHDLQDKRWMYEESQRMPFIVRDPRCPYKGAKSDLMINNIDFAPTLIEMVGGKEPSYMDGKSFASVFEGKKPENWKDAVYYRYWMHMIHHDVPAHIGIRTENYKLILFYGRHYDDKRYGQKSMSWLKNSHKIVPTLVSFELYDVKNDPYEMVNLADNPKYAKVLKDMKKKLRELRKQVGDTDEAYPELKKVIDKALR

BpGH16C (Bacple_01703) = target: T2, BpGH16C (Bacple_01703) (Phocaeicola plebeius, UniProt B5CYA6); assay: X-ray crystal structure, […] Å, soaked crystal; type: binding; conditions: inactive mutant; soaked with tetrasaccharide, only a trisaccharide modelled (subsites -1 to -3; Figure 2 legend says disaccharide); pH 7.5
T2 construct: signal peptide removed; pET-28 or pFO4, HisTrap purified; three independent molecules in asymmetric unit of complex
T2 sequence (B5CYA6 entry or part of it E178L): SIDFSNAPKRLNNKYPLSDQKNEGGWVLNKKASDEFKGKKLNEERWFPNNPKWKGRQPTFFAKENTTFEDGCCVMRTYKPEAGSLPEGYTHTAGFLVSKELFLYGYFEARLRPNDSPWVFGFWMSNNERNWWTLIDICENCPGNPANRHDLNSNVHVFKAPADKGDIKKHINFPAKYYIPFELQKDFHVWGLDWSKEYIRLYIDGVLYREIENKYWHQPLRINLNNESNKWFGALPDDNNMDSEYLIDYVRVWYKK

BpGH2C (Bacple_01706) = target: T3, BpGH2C (Bacple_01706) (Phocaeicola plebeius, UniProt B5CYA9); assay: 1H NMR after sequential enzyme incubation; type: biochemical; conditions: substrate made in situ by BpS1_[…] then BpGH29
T3 construct: signal peptide removed; pET-28 or pFO4, HisTrap purified
T3 sequence (B5CYA9 1-1086): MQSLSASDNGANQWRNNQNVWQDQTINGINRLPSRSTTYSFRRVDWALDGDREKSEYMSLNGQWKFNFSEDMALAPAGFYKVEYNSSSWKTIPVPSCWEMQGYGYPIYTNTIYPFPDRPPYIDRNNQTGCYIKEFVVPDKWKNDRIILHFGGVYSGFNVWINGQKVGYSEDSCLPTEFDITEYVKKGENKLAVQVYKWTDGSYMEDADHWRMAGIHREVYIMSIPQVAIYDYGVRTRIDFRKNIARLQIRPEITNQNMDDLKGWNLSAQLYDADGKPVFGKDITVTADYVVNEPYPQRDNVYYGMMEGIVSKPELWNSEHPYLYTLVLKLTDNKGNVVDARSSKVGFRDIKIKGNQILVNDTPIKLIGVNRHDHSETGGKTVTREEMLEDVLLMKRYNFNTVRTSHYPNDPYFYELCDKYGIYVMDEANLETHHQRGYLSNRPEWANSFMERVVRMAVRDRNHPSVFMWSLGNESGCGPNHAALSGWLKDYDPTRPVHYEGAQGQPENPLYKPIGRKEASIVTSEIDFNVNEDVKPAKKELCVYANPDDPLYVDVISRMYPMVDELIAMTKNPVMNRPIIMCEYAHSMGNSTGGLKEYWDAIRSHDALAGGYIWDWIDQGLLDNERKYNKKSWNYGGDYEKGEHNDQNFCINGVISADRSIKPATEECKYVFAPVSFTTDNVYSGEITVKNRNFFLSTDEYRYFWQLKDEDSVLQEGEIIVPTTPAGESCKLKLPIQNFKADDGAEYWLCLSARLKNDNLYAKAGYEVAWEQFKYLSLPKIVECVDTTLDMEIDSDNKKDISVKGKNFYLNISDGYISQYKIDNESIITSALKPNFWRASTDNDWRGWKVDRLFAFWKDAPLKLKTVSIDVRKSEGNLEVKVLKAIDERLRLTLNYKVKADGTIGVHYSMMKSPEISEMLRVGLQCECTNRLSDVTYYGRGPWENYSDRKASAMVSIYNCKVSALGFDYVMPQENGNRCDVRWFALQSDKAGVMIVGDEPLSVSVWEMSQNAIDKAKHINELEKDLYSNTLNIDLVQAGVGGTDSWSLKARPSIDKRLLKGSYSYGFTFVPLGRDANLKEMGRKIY

**Q.** What does the source list for O=S(=O)(O)OC[C@@H]1O[C@@H](O[C@H]2[C@@H](O)[C@@H](CO)O[C@@H](O[C@H]3[C@@H](O)[C@H](O)[C@H](O[C@H]4[C@@H](O)[C@@H](CO)OC(O)[C@@H]4O)O[C@H]3COS(=O)(=O)O)[C@@H]2O)[C@@H](O)[C@H](O)[C@@H]1O (stereo partly drawn) [L-α-6O-sulfate-Gal-(1 → 3)-D-β-Gal-(1 → 4)-L-α-6O-sulfate-Gal-(1 → 3)-D-a/β-Gal]?
**A.** 1H NMR of products (BpS1_11 (Bacple_01701)): After desulfation of the tetra-saccharides; X-ray crystal structure, 1.8 Å, soaked crystal (BpGH16C (Bacple_01703)): we crystallized the E145L inactive mutant with the tetrasaccharide

**Q.** For O=S(=O)(O)OC[C@@H]1O[C@@H](O[C@H]2[C@@H](O)[C@@H](CO)OC(O)[C@@H]2O)[C@@H](O)[C@H](O)[C@@H]1O[C@@H]1O[C@H](CO)[C@H](O)[C@H](O)[C@H]1O (stereo partly drawn) [trisaccharide with non-methylated D-galactose at the non-reducing end], which “1H NMR after sequential enzyme incubation” value (BpGH2C (Bacple_01706)) is on record?
**A.** methylated or non-methylated D-galactose residue located at the non-reducing end of the trisaccharide was cleaved
